# ChEMBL document CHEMBL4825752, “1, 2-Dihexadecanoyl-sn-glycero-3-phosphoethanolamin (DPPE), doxorubicin and folic acid conjugated micelles for cancer management in tumor bearing BALB/c mice” (Bioorg Med Chem Lett, 2021)
# What was measured:
# [1] = Biodistribution in spleen of iv dosed tumor bearing BALB/c mouse; format: ADME, organism-based; details: in vivo
# [2] = AUMC(0 to infinity) in single iv dosed BALB/c mouse by HPLC analysis; format: ADME, organism-based; details: in vivo
# [3] = Toxicity in rat kidney assessed as epithelial degeneration by histopathological analysis; format: tissue-based; details: in vivo
# [4] = Mean residence time in single iv dosed BALB/c mouse by HPLC analysis; format: ADME, organism-based; details: in vivo
# [5] = Toxicity in rat skeletal muscle assessed as widening of endomysium by histopathological analysis; format: tissue-based, Skeletal muscle tissue; details: in vivo
# [6] = Toxicity in rat liver assessed as hepatocytes degeneration by histopathological analysis
# [7] = Half life in single iv dosed BALB/c mouse by HPLC analysis; format: ADME, organism-based; details: in vivo
# [8] = Toxicity in rat kidney assessed as glomerular necrosis by histopathological analysis; format: tissue-based; details: in vivo
# [9] = AUC(0 to infinity) in single iv dosed BALB/c mouse by HPLC analysis; format: ADME, organism-based; set-up: time infinity, route intravenous; details: in vivo
# [10] = Toxicity in rat kidney assessed as tubular degeneration by histopathological analysis; format: tissue-based; details: in vivo
# [11] = Biodistribution in blood of single iv dosed tumor bearing BALB/c mouse; format: ADME, organism-based; details: in vivo
# [12] = Biodistribution in liver of iv dosed tumor bearing BALB/c mouse; format: ADME, organism-based; details: in vivo
# [13] = Toxicity in rat heart assessed as myocardial cell degeneration by histopathological analysis; format: tissue-based
# [14] = Biodistribution in heart of iv dosed tumor bearing BALB/c mouse; format: ADME, organism-based; details: in vivo
# [15] = Biodistribution in kidney of iv dosed tumor bearing BALB/c mouse; format: ADME, organism-based; details: in vivo
# [16] = AUC(0 to t) in single iv dosed BALB/c mouse by HPLC analysis; format: ADME, organism-based; details: in vivo
# [17] = Toxicity in tumor bearing BABL/c mouse assessed as median survival time at 5 mg/kg, iv (reference value: 7.5 day); format: organism-based; details: in vivo, 180 h
# [18] = Toxicity in rat heart assessed as myocardial necrosis by histopathological analysis; format: tissue-based; details: in vivo
# [19] = Toxicity in rat kidney assessed as congestion of glomeruli blood vessels by histopathological analysis; format: tissue-based; details: in vivo
# [20] = Toxicity in rat liver assessed as microvesicular steatosis by histopathological analysis; format: tissue-based
# [21] = Toxicity in rat heart assessed as haemorrhage by histopathological analysis; format: tissue-based; details: in vivo
# [22] = AUMC(0 to t) in single iv dosed BALB/c mouse by HPLC analysis; format: ADME, organism-based; details: in vivo
# [23] = Toxicity in rat skeletal muscle assessed as infiltration of inflammatory cells by histopathological analysis; format: tissue-based, Skeletal muscle tissue
# [24] = Toxicity in rat kidney assessed as tubular necrosis by histopathological analysis; format: tissue-based; details: in vivo
structure (smiles),measurement,setting,value
COc1cccc2c1C(=O)c1c(O)c3c(c(O)c1C2=O)C[C@@](O)(C(=O)CO)C[C@@H]3O[C@H]1C[C@H](N)[C@H](O)[C@H](C)O1 [DOXORUBICIN],Drug uptake,[1],Active
same,AUMC,[2],30.25 ug/ml.hr^2
same,Activity,[3],Toxic
same,MRT,[4],3.1 h
same,Activity,[5],Toxic
same,Activity,[6],Toxic
same,t1/2,[7],2.09 h
same,Activity,[8],Toxic
same,AUC(0-inf),[9],10.4 µg·h/mL
same,Activity,[10],Toxic
same,Drug uptake,[11],Active
same,Drug uptake,[12],Active
same,Activity,[13],Toxic
same,Drug uptake,[14],Active
same,Drug uptake,[15],Active
same,AUC(0-t),[16],11.3 µg·h/mL
same,Activity,[17],Non-Toxic
same,MST,[17],40 days
same,Activity,[18],Toxic
same,Activity,[19],Toxic
same,Activity,[20],Toxic
same,Activity,[21],Toxic
same,AUMCt,[22],29.45 ug/ml.hr^2
same,Activity,[23],Toxic
same,Activity,[24],Toxic
